Test results from patent US7462600B2, “Macrolides” (Pfizer Inc, priority 2004, dated 2008).
In brackets after ≈: the same amount, converted by molar mass.

Legend:
Type in all cases: cell-based
[1] = test system: Streptococcus pyogenes 1079; assay: MIC, microtiter broth dilution (NCCLS M100-S14), S. pyogenes 1079 (ermB); conditions: Streptococcus pyogenes 1079
How it was run: (§1)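 MIC read-out follows NCCLS M100-S14 interpretation of microtiter tray broth dilution. Test agents are prepared as DMSO stocks at 40 mg/ml.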

[2] = test system: Streptococcus pneumoniae 1016; assay: MIC, microtiter broth dilution (NCCLS M100-S14), S. pneumoniae 1016 (susceptible); conditions: Streptococcus pneumoniae 1016
How it was run: as §1

[3] = test system: Streptococcus pneumoniae 1095; conditions: Streptococcus pneumoniae 1095; microtiter broth dilution
How it was run: as §1

[4] = test system: Streptococcus pneumoniae 1175; conditions: Streptococcus pneumoniae 1175; microtiter broth dilution
How it was run: as §1

[5] = test system: Haemophilus influenzae 1218; assay: MIC, microtiter broth dilution (NCCLS M100-S14), H. influenzae 1218 (susceptible); conditions: Haemophilus influenzae 1218
How it was run: as §1

SMILES | MIC S. pyogenes 1079 [1] | MIC S. pneumo. 1016 [2] | MIC S. pneumo. 1095 [3] | MIC S. pneumo. 1175 [4] | MIC H. influenzae 1218 [5]
CCC1OC(=O)C(C)C(=O)C(C)C(OC2OC(C)CC(N(C)C)C2O)C(C)(OC)CC(C)C(=O)C(C)C2N(C3CN(Cc4ccnc5[nH]c(C6CC6)nc45)C3)C(=O)OC12C (stereo not drawn) [Example 1.89, 3-descladinosyl-11,12-dideoxy-6-O-methyl-3-oxo-12,11-(oxycarbonyl-(1-(2-cyclopropyl-3H-imidazo[4,5-b]pyridine-7-methyl)-azetidin-3-yl)-imino)-erythromycin A] | 1 µg/mL (≈ 1.19 µM) | <0.063 µg/mL | 0.5 µg/mL (≈ 0.596 µM) | <0.063 µg/mL | 4 µg/mL (≈ 4.77 µM)
CCC1OC(=O)C(C)C(=O)C(C)C(OC2OC(C)CC(N(C)C)C2O)C(C)(OC)CC(C)C(=O)C(C)C2N(C3CN(Cc4ccnc5ccc(OC)cc45)C3)C(=O)OC12C (stereo not drawn) [Example 1.90, 3-descladinosyl-11,12-dideoxy-4-O-methyl-3-oxo-12,11-(oxycarbonyl-(1-(6-methoxyquinoline-4-methyl)-azetidin-3-yl)-imino)-erythromycin A] | 2 µg/mL (≈ 2.38 µM) | <0.063 µg/mL | 0.125 µg/mL (≈ 0.149 µM) | <0.063 µg/mL | 2 µg/mL (≈ 2.38 µM)
CCC1OC(=O)C(C)C(=O)C(C)C(OC2OC(C)CC(N(C)C)C2O)C(C)(OC)CC(C)C(=O)C(C)C2N(C3CN(Cc4cccc5ccccc45)C3)C(=O)OC12C (stereo not drawn) [Example 1.91, 3-descladinosyl-11,12-dideoxy-6-O-methyl-3-oxo-12,11-(oxycarbonyl-(1-(naphthalene-1-methyl)-azetidin-3-yl)-imino)-erythromycin A] | 8 µg/mL (≈ 9.9 µM) | <0.063 µg/mL | 0.125 µg/mL (≈ 0.155 µM) | <0.063 µg/mL | 1 µg/mL (≈ 1.24 µM)
CCC1OC(=O)C(C)C(=O)C(C)C(OC2OC(C)CC(N(C)C)C2O)C(C)(OC)CC(C)C(=O)C(C)C2N(C3CN(Cc4c(C)ccc5ccccc45)C3)C(=O)OC12C (stereo not drawn) [Example 1.92, 3-descladinosyl-11,12-dideoxy-6-O-methyl-3-oxo-12,11-(oxycarbonyl-(1-(2-methylnaphthalene-1-methyl)-azetidin-3-yl)-imino)erythromycin A] | 2 µg/mL (≈ 2.43 µM) | <0.063 µg/mL | 0.125 µg/mL (≈ 0.152 µM) | <0.063 µg/mL | 2 µg/mL (≈ 2.43 µM)
CCC1OC(=O)C(C)C(=O)C(C)C(OC2OC(C)CC(N(C)C)C2O)C(C)(OC)CC(C)C(=O)C(C)C2N(C3CN(Cc4ccnc5c4ncn5C)C3)C(=O)OC12C (stereo not drawn) [Example 1.93, 3-descladinosyl-11,12-dideoxy-6-O-methyl-3-oxo-12,11-(oxycarbonyl-(1-(3-methyl-3H-imidazo[4,5-b]pyridine-7-methyl)-azetidin-3-yl)-imino)-erythromycin A] | 1 µg/mL (≈ 1.23 µM) | <0.063 µg/mL | <0.063 µg/mL | 1 µg/mL (≈ 1.23 µM) | 2 µg/mL (≈ 2.46 µM)
CCC1OC(=O)C(C)C(=O)C(C)C(OC2OC(C)CC(N(C)C)C2O)C(C)(OC)CC(C)C(=O)C(C)C2N(C3CN(Cc4ccc5c(c4)CS(=O)(=O)C5)C3)C(=O)OC12C (stereo not drawn) [Example 1.94] | 4 µg/mL (≈ 4.72 µM) | <0.063 µg/mL | 0.5 µg/mL (≈ 0.59 µM) | 0.25 µg/mL (≈ 0.295 µM) | 1 µg/mL (≈ 1.18 µM)
CC[C@H]1OC(=O)[C@H](C)C(=O)[C@H](C)[C@@H](O[C@@H]2O[C@H](C)C[C@H](N(C)C)[C@H]2O)[C@](C)(OC)C[C@@H](C)C(=O)[C@H](C)[C@H]2N(C3CN(Cc4ccnc5c(C#N)cccc45)C3)C(=O)O[C@]12C [Example 1.95, 3-descladinosyl-11,12-dideoxy-6-O-methyl-3-oxo-12,11-(oxycarbonyl-(1-(quinoline-8-carbonitrile-4-methyl)-azetidin-3-yl)-imino)-erythromycin A] | 1 µg/mL (≈ 1.2 µM) | <0.063 µg/mL | 1 µg/mL (≈ 1.2 µM) | <0.063 µg/mL | 2 µg/mL (≈ 2.4 µM)
CCC1OC(=O)C(C)C(=O)C(C)C(OC2OC(C)CC(N(C)C)C2O)C(C)(OC)CC(C)C(=O)C(C)C2N(C3CN(Cc4ccc(C#N)c5ncccc45)C3)C(=O)OC12C (stereo not drawn) [Example 1.96, 3-descladinosyl-11,12-dideoxy-6-O-methyl-3-oxo-12,11-(oxycarbonyl-(1-(quinoline-8-carbonitrile-5-methyl)-azetidin-3-yl)-imino)-erythromycin A] | 1 µg/mL (≈ 1.2 µM) | <0.063 µg/mL | <0.063 µg/mL | <0.063 µg/mL | 1 µg/mL (≈ 1.2 µM)
CCOc1ccc2ccccc2c1CN1CC(N2C(=O)OC3(C)C(CC)OC(=O)C(C)C(=O)C(C)C(OC4OC(C)CC(N(C)C)C4O)C(C)(OC)CC(C)C(=O)C(C)C23)C1 (stereo not drawn) [Example 1.97, 3-descladinosyl-11,12-dideoxy-6-O-methyl-3-oxo-12,11-(oxycarbonyl-(1-(2-ethoxynaphthalene-1-methyl)-azetidin-3-yl)-imino)-erythromycin A] | 2 µg/mL (≈ 2.35 µM) | <0.063 µg/mL | <0.063 µg/mL | <0.063 µg/mL | 0.5 µg/mL (≈ 0.587 µM)
CCC1OC(=O)C(C)C(=O)C(C)C(OC2OC(C)CC(N(C)C)C2O)C(C)(OC)CC(C)C(=O)C(C)C2N(C3CN(Cc4c(C)cnc5ccccc45)C3)C(=O)OC12C (stereo not drawn) [Example 1.98, 3-descladinosyl-11,12-dideoxy-6-O-methyl-3-oxo-12,11-(oxycarbonyl-(1-(3-methylquinoline-4-methyl)-azetidin-3-yl)-imino)-erythromycin A] | 0.25 µg/mL (≈ 0.304 µM) | <0.063 µg/mL | <0.063 µg/mL | <0.063 µg/mL | 2 µg/mL (≈ 2.43 µM)
CCC1OC(=O)C(C)C(=O)C(C)C(OC2OC(C)CC(N(C)C)C2O)C(C)(OC)CC(C)C(=O)C(C)C2N(C3CN(Cc4c(C)cnc5ncccc45)C3)C(=O)OC12C (stereo not drawn) [Example 1.99, 3-descladinosyl-11,12-dideoxy-6-O-methyl-3-oxo-12,11-(oxycarbonyl-(1-(3-methyl-1,8-naphthyridine-4-methyl)-azetidin-3-yl)-imino)-erythromycin A] | 0.5 µg/mL (≈ 0.607 µM) | <0.063 µg/mL | <0.063 µg/mL | <0.063 µg/mL | 1 µg/mL (≈ 1.21 µM)
CCC1OC(=O)C(C)C(=O)C(C)C(OC2OC(C)CC(N(C)C)C2O)C(C)(OC)CC(C)C(=O)C(C)C2N(C3CN(Cc4c(Cl)cnc5[nH]cnc45)C3)C(=O)OC12C (stereo not drawn) [Example 1.100, 3-descladinosyl-11,12-dideoxy-6-O-methyl-3-oxo-12,11-(oxycarbonyl-(1-(6-chloro-3H-imidazo[4,5-b]pyridine-7-methyl)-azetidin-3-yl)-imino)-erythromycin A] | 0.125 µg/mL (≈ 0.15 µM) | <0.063 µg/mL | <0.063 µg/mL | <0.063 µg/mL | 0.5 µg/mL (≈ 0.6 µM)
